Results taken from patent US6919377B2, “Cyclohexylamine derivative as subtype selective NMDA receptor antagonists” (Warner Lambert Company LLC, priority 2000, dated 2005).
pIC50: −log10 of the molar value. Where a name gives a salt, the structure may show the parent alone. Read-outs that look alike come from different tables or passages of the source.

Tests used:
NR1a/NR2B = NR1a/NR2B (Rattus norvegicus, UniProt P35439+Q00960); assay: Electrophysiological assay at NMDA receptor subunits expressed in Xenopus oocytes (two-electrode voltage clamp); format: cell-based
Experimental: The clones were transformed into appropriate host bacteria and plasmid preparations were made with conventional DNA purification techniques. A sample of each clone was linearized by restriction enzyme digestion […] was synthesized with T3 RNA polymerase. The cRNA was diluted to 400 ng/μL and stored in 1 μL aliquots at −80° C. until injection.
The Xenopus Oocyte Expression System. […] Follicle-enclosed oocytes were micro-injected with 1:1 mixtures of NR1A:NR2A, 2B or 2C.; injecting 1 to 10 ng of RNA encoding each receptor subunit. NR1A encoding RNA was injected alone at ˜20 ng. Oocytes were stored in Barth's medium containing (in mM): NaCl, 88; KCl, 1; CaCl2, 0.41; Ca (NO3)2, 0.33; MgSO4, 0.82; NaHCO3, 2.4; HEPES 5, pH 7.4, with 0.11 mg/ml gentamicin sulphate. While oocytes were still surrounded by enveloping ovarian tissues, the Barth's medium was supplemented with 0.1% bovine serum.
Drugs were applied by bath perfusion. Using oocytes expressing different subunit combinations of NMDA receptor, NMDA currents were activated by co-application of glutamate (100 μM) and glycine (1-100 μM). Inhibitory potency of the novel antagonists was assessed on responses elicited by fixed concentrations of glutamate and glycine, by measuring reductions in current induced by progressively increasing concentrations of antagonist.
Concentration-inhibition curves were fit with Equation 1. […] For incomplete curves analysis by fitting was unreliable and IC50 values were calculated by simple regression over linear portions of the curves (Origin: Microcal Software).

D2 = D2 (Homo sapiens, UniProt P14416); assay: D2 Raclopride (Table 4, no method given); format: binding
Alpha 1 = Alpha 1 (Table 4, no method given); format: binding; details: read-out: Alpha 1 cocn IC50
[1] = Table 1, cloned rat NMDA receptor subunits in Xenopus oocytes, currents activated by glutamate (100 μM) and glycine (1-100 μM), read-out: NR1a/NR2B Oocyte IC50
[2] = Table 4, cloned rat NMDA receptor subunits in Xenopus oocytes, read-out: NR1a/NR2B Oocyte IC50
[3] = Table 2, head names no subunit, electrophysiological assay results, read-out: IC50

Sequence of NR1a/NR2B (Q00960 27-1482, other chains not shown): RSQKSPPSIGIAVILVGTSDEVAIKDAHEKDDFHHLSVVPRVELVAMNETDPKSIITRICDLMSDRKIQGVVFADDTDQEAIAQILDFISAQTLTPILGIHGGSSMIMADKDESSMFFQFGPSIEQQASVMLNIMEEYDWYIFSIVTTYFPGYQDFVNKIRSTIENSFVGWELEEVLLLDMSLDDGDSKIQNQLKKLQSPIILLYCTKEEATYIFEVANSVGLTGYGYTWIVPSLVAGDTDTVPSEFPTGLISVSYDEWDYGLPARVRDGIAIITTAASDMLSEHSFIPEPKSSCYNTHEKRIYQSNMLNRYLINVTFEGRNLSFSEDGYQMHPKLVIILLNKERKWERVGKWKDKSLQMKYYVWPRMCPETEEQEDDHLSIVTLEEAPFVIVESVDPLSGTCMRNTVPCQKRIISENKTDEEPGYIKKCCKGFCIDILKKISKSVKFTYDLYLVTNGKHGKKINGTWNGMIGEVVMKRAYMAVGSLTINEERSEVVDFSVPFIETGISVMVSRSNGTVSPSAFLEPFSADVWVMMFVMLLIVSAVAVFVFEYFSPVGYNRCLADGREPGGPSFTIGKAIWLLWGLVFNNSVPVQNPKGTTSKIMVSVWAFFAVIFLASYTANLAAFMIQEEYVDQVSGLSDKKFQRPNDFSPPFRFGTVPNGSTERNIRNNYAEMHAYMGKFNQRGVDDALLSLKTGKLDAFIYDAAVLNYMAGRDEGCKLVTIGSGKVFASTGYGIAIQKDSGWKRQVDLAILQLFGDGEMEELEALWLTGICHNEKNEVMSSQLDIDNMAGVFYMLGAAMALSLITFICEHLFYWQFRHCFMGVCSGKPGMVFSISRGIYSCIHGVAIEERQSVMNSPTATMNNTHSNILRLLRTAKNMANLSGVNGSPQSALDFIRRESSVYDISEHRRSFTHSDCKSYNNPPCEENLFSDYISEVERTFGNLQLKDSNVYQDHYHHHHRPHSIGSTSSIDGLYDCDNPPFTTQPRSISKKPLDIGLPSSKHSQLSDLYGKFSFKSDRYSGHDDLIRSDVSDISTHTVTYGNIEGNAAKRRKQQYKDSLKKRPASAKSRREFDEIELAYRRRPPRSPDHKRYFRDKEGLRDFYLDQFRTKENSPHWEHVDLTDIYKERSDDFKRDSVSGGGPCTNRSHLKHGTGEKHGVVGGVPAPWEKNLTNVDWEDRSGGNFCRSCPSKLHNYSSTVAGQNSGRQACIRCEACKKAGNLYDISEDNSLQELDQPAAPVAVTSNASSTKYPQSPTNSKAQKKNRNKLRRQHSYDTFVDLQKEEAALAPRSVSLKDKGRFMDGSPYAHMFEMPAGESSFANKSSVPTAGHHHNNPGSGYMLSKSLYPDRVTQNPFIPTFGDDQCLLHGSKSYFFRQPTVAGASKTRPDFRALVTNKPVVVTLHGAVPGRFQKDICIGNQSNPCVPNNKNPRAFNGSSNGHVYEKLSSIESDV
Sequence of D2 (P14416 whole entry): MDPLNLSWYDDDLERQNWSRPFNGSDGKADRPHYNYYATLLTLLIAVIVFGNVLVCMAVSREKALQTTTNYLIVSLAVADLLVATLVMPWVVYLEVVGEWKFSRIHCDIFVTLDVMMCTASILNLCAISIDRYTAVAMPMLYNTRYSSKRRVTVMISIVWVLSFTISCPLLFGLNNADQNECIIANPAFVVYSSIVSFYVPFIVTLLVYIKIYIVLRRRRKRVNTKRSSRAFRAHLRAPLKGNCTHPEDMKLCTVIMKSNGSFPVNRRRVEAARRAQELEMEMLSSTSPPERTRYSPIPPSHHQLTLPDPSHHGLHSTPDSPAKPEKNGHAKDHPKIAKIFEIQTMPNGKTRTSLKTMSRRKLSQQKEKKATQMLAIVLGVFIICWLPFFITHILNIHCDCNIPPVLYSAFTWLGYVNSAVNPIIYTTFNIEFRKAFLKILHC

## Oc1ccc([C@H]2CC[C@H](N(CCCc3ccccc3)Cc3ccccc3)CC2)cc1 (as salt: HCl) [Example 29, 4-{4-[benzyl(3-phenylpropyl)amino]cyclohexyl}phenol]
other
  melting point: 259 to 264 °C

## CCN(CCCc1ccccc1)[C@H]1CC[C@H](c2ccc(O)c(CN)c2)CC1 (as salt: HCl) [Example 31, 2-aminomethyl-4-{4-[ethyl(3-phenylpropyl)amino]cyclohexyl}phenol]
other
  melting point: 168 to 173 °C

## Oc1ccc([C@H]2CC[C@H](NCCNc3ccccc3)CC2)cc1 (as salt: maleate) [Example 25, Trans-4-[4-(2-phenylaminoethylamino)cyclohexyl]phenol]
other
  melting point: 180 to 184 °C

## CCN(CCCc1ccccc1)[C@H]1CC[C@H](c2ccc(O)cc2)CC1 (as salt: salt) [Example 26, Trans-4-{4-[N-ethyl-N-(3-phenylpropyl)amino]cyclohexyl) phenol]
other
  melting point: 192 to 194 °C

## CC(C)N(CCCc1ccccc1)[C@H]1CC[C@H](c2ccc(O)cc2)CC1 (as salt: salt) [Example 27, Trans-4-{4-[N-isopropyl-N-(3-phenylpropyl)amino]cyclohexyl}phenol]
other
  melting point: 146 to 154 °C

## CN(CCOc1ccccc1)[C@H]1CC[C@H](c2ccc(O)cc2)CC1 (as salt: salt) [Example 30, 4-{4-[methyl(2-phenoxyethyl)amino]cyclohexyl}phenol]
other
  melting point: 216 to 220 °C

## Oc1ccc([C@H]2CC[C@@H](NCCCCc3ccccc3)CC2)cc1 [Example 1a, cis-4-[4-(4-Phenylbutylamino)cyclohexyl]phenol]
NR1a/NR2B; [1]
  pIC50: 6.05
other
  melting point: 128 to 131 °C

## Oc1ccc([C@H]2CC[C@@H](NCCc3ccccc3)CC2)cc1 [Example 3a, cis-4-(4-Phenethylaminocyclohexyl)phenol]
NR1a/NR2B; [1]
  pIC50: 6.08
other
  melting point: 155 to 160 °C

## Oc1ccc([C@H]2CC[C@@H](NCc3ccccc3)CC2)cc1 [Example 4a, cis-4-(4-Benzylaminocyclohexyl)phenol]
NR1a/NR2B; [1]
  pIC50: 4.15
other
  melting point: 107 to 110 °C

## Oc1ccc([C@H]2CC[C@H](NCc3ccccc3)CC2)cc1 [Example 4b, trans-4-(4-Benzylaminocyclohexyl)phenol]
NR1a/NR2B; [1]
  pIC50: 4.37
other
  melting point: 168 to 172 °C

## Oc1ccc([C@H]2CC[C@@H](NCCc3ccc(F)cc3)CC2)cc1 [Example 5a, cis-4-{4-[2-(4-Fluorophenyl)ethylamino]cyclohexyl}phenol]
D2
  pIC50: 5.57
NR1a/NR2B; [2]
  pIC50: 5.92
Alpha 1
  pIC50: 5.00

## C[C@H](CCc1ccccc1)N[C@H]1CC[C@H](c2ccc(O)cc2)CC1 [Example 6c, trans-4-[4-((R)-1-Methyl-3-phenylpropylamino)cyclohexyl]phenol]
NR1a/NR2B; [3]
  pIC50: 7.22
other
  melting point: 152 to 160 °C

## C[C@@H](CCc1ccccc1)N[C@H]1CC[C@H](c2ccc(O)cc2)CC1 [Example 6d, trans-4-[4-((S)-1-Methyl-3-phenylpropylamino)cyclohexyl]phenol]
NR1a/NR2B; [3]
  pIC50: 7.15
other
  melting point: 165 to 170 °C

## COc1ccc(CCN[C@H]2CC[C@@H](c3ccc(O)cc3)CC2)cc1 [Example 8a, cis-4-{4-[2-(4-Methoxyphenyl)ethylamino]cyclohexyl}phenol]
D2
  pIC50: 5.30
NR1a/NR2B; [2]
  pIC50: 5.62
Alpha 1
  pIC50: 5.04

## COc1ccc(CCN[C@H]2CC[C@H](c3ccc(O)cc3)CC2)cc1 [Example 8b, trans-4-{4-[2-(4-Methoxyphenyl)ethylamino]cyclohexyl}phenol]
D2
  pIC50: 5.72
NR1a/NR2B; [2]
  pIC50: 6.62
Alpha 1
  pIC50: 5.29

## C[C@@H](Cc1ccccc1)N[C@H]1CC[C@H](c2ccc(O)cc2)CC1 [Example 13, trans-4-[4-((S)-1-Methyl-2-phenylethylamino)cyclohexyl]phenol]
NR1a/NR2B; [3]
  pIC50: 4.80
other
  melting point: 183 to 187 °C

## CC(=O)N(Cc1ccccc1)[C@H]1CC[C@H](c2ccc(O)cc2)CC1 [Example 16, trans-N-Benzyl-N-[4-(4-hydroxyphenyl)cyclohexyl]acetamide]
NR1a/NR2B; [3]
  pIC50: 3.70
other
  melting point: 227 to 235 °C

## CC(=O)N(CCCc1ccccc1)[C@H]1CC[C@H](c2ccc(O)cc2)CC1 [Example 17, trans-N-[4-(4-Hydroxyphenyl)cyclohexyl]-N-(3-phenylpropyl)acetamide]
NR1a/NR2B; [3]
  pIC50: 5.36
other
  melting point: 175 to 180 °C

## COC(=O)N(CCCc1ccccc1)[C@H]1CC[C@H](c2ccc(O)cc2)CC1 [Example 18, Trans-N-[4-(4-Hydroxyphenyl)cyclohexyl]-N-(3-phenylpropyl)carbamic acid methyl ester]
NR1a/NR2B; [3]
  pIC50: 7.30
other
  melting point: 128 to 133 °C

## COC(=O)N(Cc1ccccc1)[C@H]1CC[C@H](c2ccc(O)cc2)CC1 [Example 19, Trans-N-benzyl-N-[4-(4-hydroxyphenyl)cyclohexyl]carbamic acid methyl ester]
NR1a/NR2B; [3]
  pIC50: 3.62
other
  melting point: 61 to 66 °C

## O=C(CCc1ccccc1)N[C@H]1CC[C@H](c2ccc(O)cc2)CC1 [Example 21, Trans-N-[4-(4-Hydroxyphenyl)cyclohexyl]-3-phenylpropionamide]
NR1a/NR2B; [3]
  pIC50: 7.15
other
  melting point: 201 to 206 °C

## CC(C)(Oc1ccccc1)C(=O)N[C@H]1CC[C@H](c2ccc(O)cc2)CC1 [Example 22, Trans-N-[4-(4-Hydroxyphenyl)cyclohexyl]-2-methyl-2-phenoxy-propionamide]
NR1a/NR2B; [3]
  pIC50: 3.52
other
  melting point: 114 to 117 °C

## COc1ccc(CCCN[C@H]2CC[C@H](c3ccc(O)cc3)CC2)cc1 [Example 28, Trans-4-{4-[3-(4-methoxyphenyl)propylamino]cyclohexyl}phenol]
D2
  pIC50: 5.53
NR1a/NR2B; [2]
  pIC50: 7.15
Alpha 1
  pIC50: 5.64
